In patent publication US7098372B1, “Pharmaceutical compositions and methods of using secreted frizzled related protein” (Wyeth, priority 1999, dated 2006):

Key:
Type in all cases: cell-based, human
[1] = tested on: hOB-03-C5 cells; assay: Apoptosis by flow cytometry using annexin V-FITC and propidium iodide
Protocol: Apoptosis was measured by flow cytometry using annexin V-FITC.
(§1) The hypothesis that up-regulation of SFRP-1/FRP-1/SARP-2 gene expression accelerates hOB cell death, while down-regulation of SFRP-1/FRP-1/SARP-2 gene expression suppresses cell death, was next examined. […] The next day, the 6-well plates were rinsed with PBS, placed in BSA-medium, and treated at 39° C. in the absence or presence of either 100 nM PGE2 (in order to up-regulate SFRP-1/FRP-1/SARP-2 steady-state mRNA levels; panels A & B), or 0.01–1.0 nM TGF-β1 (in order to down-regulate SFRP-1/FRP-1/SARP-2 message levels; panel C). Incubating cells in serum-free medium is a common method to induce apoptosis (Melkonyan et al. 1997 Proc. Natl. Acad. Sci. USA 94: 13636–13641), and the hOB-03-C5, hOB-03-CE6 and hOB-01-C1 cell lines all stopped dividing and gradually died under these conditions. […] In contrast, treatment of the hOB-01-C1 cells with TGF-β1 increased cell viability about 2-fold in a dose-dependent manner. […] This observation was consistent with the induction of apoptosis, which is known to result in cytoplasmic blebbing, the loss of water and a decrease in cell volume (Mesner and Kaufmann 1997 in Advances in Pharmacology, vol. 41, pp. 57–88). […] Finally, treatment of the hOB-03-C5 cells with PGE2 increased annexin V (a specific marker for apoptosis) binding to the cell as measured by flow cytometry (FIG. 11).

[2] = tested on: hOB SFRP mRNA; assay: TaqMan quantitative RT-PCR of hOB SFRP mRNA; details: 24 hr
Protocol: In a similar manner, the hOB-01-C1 cells were seeded into 100 mm dishes and treated for 24 hr with increasing concentrations of TGF-β1. Total RNA was then isolated from the cells, and hOB SFRP mRNA was measured by TaqMan quantitative RT-PCR. TGF-β1 suppressed SFRP gene expression by approximately 70% in a dose-dependent manner with an IC50 of about 4 pM.
In addition to the hOB cell lines from which SFRP was initially identified, additional in vitro human osteoblast models were examined for the presence of the gene. SaOS-2 human osteosarcoma osteoblast-like cells were obtained from the American Type-Culture Collection (ATCC) and were cultured at 37° C. in McCoy's 5A Modified medium containing 10% FBS, 1% (v/v) Penicillin-Streptomycin and 2 mM GlutaMAX-1. Likewise, explant cultures of normal human osteoblasts (hOBs) were established from cancellous bone chips as previously described (Bodine et al. 1996 J. Bone Miner. Res. 11: 806–819, which is incorporated herein by reference). The cells were then seeded into 150 mm dishes and treated as described in Examples 1 and 4, except that the cells were incubated at 37° C. instead of 39° C. PolyA+ RNA Northern blot analysis was performed using the cloned 1.1 kb hOB SRFP gene fragment as a ^32P-label). SaOS-2 cells expressed relatively low basal levels of SFRP mRNA which was not regulated by treatment with either PTH, PGE2 or TGF-β1 (FIG. 7). It was difficult to quantify expression of this gene in these cells, since the level of expression was low. In contrast, normal hOB cells expressed higher basal levels of SFRP message, and treatment of the cells with 100 nM PGE2 for 24 hr appeared to slightly up-regulate the steady-state levels of this mRNA (˜1.3-fold). […] Due to the low basal level expression in osteosarcoma cells, these cells may not be satisfactory in vitro models to study the regulation of the SFRP gene. Since the gene is expressed and regulated by PGE2 in cultures of normal human osteoblasts, the use of the hOB cell lines described in the present invention is validated for in vitro osteoblast models.

[3] = tested on: hOB-03-C5 cells; assay: Generation of histone-associated DNA fragments
Protocol: as §1

[4] = tested on: hOB-03-C5, hOB-03-CE6 and hOB-01-C1 cells; assay: hOB cell viability in serum-free medium, Coulter cell counter; details: 39° C.
Protocol: For these experiments, the cells were treated with either control or PGE2 (panels A & B) or control and TGF-β1 (panel C) in serum-free medium at 39° C. for 3 or 6 days. The results are presented as the % relative to the day 0 control (i.e., […] cells per well of a 6 well plate). The results of this experiment indicate that hOB cell viability declines over time in serum-free medium. In addition, for the hOB-03-C5 and hOB-03-CE6 cells, this rate of decline is accelerated by treatment with PGE2. This enhanced rate of cell death correlates with the upregulation of hOB SFRP mRNA levels in these cells following PGE2 treatment. […]
The next day, one set of plates were rinsed with PBS, trypsinized, and baseline cell number (and mean cell volume) was determined with a Coulter Multisizer as previously described in Bodine et al. 1996 J. Bone Miner. […] The other set of plates was placed at the non-permissive temperature of 39° C., and cell number was determined 6 days later (the medium was changed on day 3). […]
The hypothesis that up-regulation of SFRP-1/FRP-1/SARP-2 gene expression accelerates hOB cell death, while down-regulation of SFRP-1/FRP-1/SARP-2 gene expression suppresses cell death, was next examined. […] Finally, treatment of the hOB-03-C5 cells with PGE2 increased annexin V (a specific marker for apoptosis) binding to the cell as measured by flow cytometry (FIG. 11).

[5] = tested on: hOB-01-C1-PS-09 cells; assay: Hepatocyte growth factor (HGF) secretion by hOB-01-C1-PS-09 cells; details: 39° C.

IC50 ([2]; hOB-01-C1 cells, read-out: IC50 for suppression of SFRP gene expression) [pM]	Compound	annexin V binding to the cell [1]	number of apoptotic cells (annexin V but not propidium iodide) ([1]; increasing concentrations)	number of necrotic cells (annexin V and propidium iodide) ([1]; increasing concentrations)	number of viable cells (no annexin V or propidium iodide staining) ([1]; increasing concentrations)	up-regulation of SFRP message ([2]; normal hOB cells (explant cultures), 100 nM) [fold]	histone-associated DNA fragments [3]	fewer cells remaining alive versus control ([4]; hOB-03-C5 and hOB-03-CE6 cells, 100 nM, 6 days)	suppression of SFRP gene expression ([2]; hOB-01-C1 cells, increasing concentrations)	HGF secretion [5]	increase in cell viability ([4]; hOB-01-C1 cells, 0.01–1.0 nM, dose-dependent)
	CCCCC[C@H](O)/C=C/[C@H]1[C@H](O)CC(=O)[C@@H]1C/C=C\CCCC(=O)O [PGE2, prostaglandin E2]	increased	increases	increases	declines	10	resulted in the generation of histone-associated DNA fragments	over 40%			
~4	human transforming growth factor-β1 [TGF-β1]								approximately 70%	dose-dependent decrease	about 2 fold
